“Also recorded” adds a separate entry of the source.
Experiments:
Assay type in all cases: physicochemical
[1] = Dynamic vapour sorption (DVS) analysis in isotherm at 25° C.; details: for weight change at 0% RH in desorption / water still contained at the inflection at about 40% RH in desorption / weight change preserved in desorption up to 50% RH / weight change in sorption at 70% RH / weight change in sorption at 90% RH / weight change in sorption at 30% RH / change in weight in sorption at 20% RH: DVS isotherm 25° C.; for water still contained at the inflection at about 40% RH in desorption: about 40% RH (corresponds to about 4 water molecules); for weight change preserved in desorption up to 50% RH: stable up to 50% RH (corresponds to about 8 water molecules)
Experimental: (§1) To check the stability of the samples DVS (Dynamic vapour sorption) measurements were made using the DVS Intrinsic SMS instrument. The weight change of the sample associated with the change in humidity in a chamber at constant temperature was determined. Each sample was weighed in a range from […], with mass change equal to ±150 mg and mass resolution equal to ±0.1 μg, and positioned in the instrument and analysed at 25° C.±0.1 and 40° C.±0.1 in a relative humidity range comprised between 0% RH and 90% RH with increments of 10% RH, accuracy equal to ±1% RH. Moreover, the sample is brought from 0-90-0% RH with stages of 10% RH. The duration of these stages is as a function of the stabilization of the weight: if the weight change remains less than 0.002 dm (%)/dt (min) for 10 min, it goes on to the next stage. However, the stabilization for each stage cannot last more than 6 hours and in that case the instrument passes on to the next stage. The last stage contemplates the stabilization of the sample at 0% RH for 4 hours.
In order to verify the stability of the samples DVS (Dynamic vapour sorption) measurements were carried out using the DVS Intrinsic SMS instrument. The weight change of the sample associated with the change in humidity in a chamber at constant temperature was determined. Each sample was positioned in the instrument and analysed at 25° C.±0.1 in a humidity range that ranges from 0% to 90% RH with increments of 10% RH, RH accuracy equal to ±1% RH. The sample is stabilized at 0% RH for 4 hours. The duration of the single stages is as a function of the stabilization of the weight: if the weight change remains less than 0.002 dm (%)/dt (min) for 10 min, it goes on to the next stage. The stabilization cannot last more than 6 hours and in that case it passes on to the next stage. The last stage contemplates the stabilization of the sample at 0% RH for 4 hours.
(§2) To check the stability of the samples DVS (Dynamic vapour sorption) measurements were made using the DVS Intrinsic SMS instrument. The weight change of the sample associated with the change in humidity in a chamber at constant temperature was determined. Each sample was positioned in the instrument and analysed at 25° C.±0.1 in a humidity range from 0% RH to 90% RH with increments of 10% RH, accuracy equal to ±1% RH. The sample is stabilized at 0% RH for 4 hours. The duration of the single stages is as a function of the stabilization of the weight: if the weight change remains less than 0.002 dm (%)/dt (min) for 10 min, it goes on to the next stage. The stabilization cannot last more than 6 hours and in that case it passes on to the next stage. The last stage contemplates the stabilization of the sample at 0% RH for 4 hours.

[2] = Dynamic vapour sorption (DVS) analysis in isotherm at 40° C.; details: DVS isotherm 40° C.
Experimental: as §1
as §2, with “Each sample is positioned in” for “Each sample was positioned in”, “analysed at 40° C.±0.1 in” for “analysed at 25° C.±0.1 in”, “from 0% to 90%” for “from 0% RH to 90%”, “10% RH, RH accuracy equal” for “10% RH, accuracy equal”, “of the weight, if the” for “of the weight: if the”

[3] = Thermal stability by DSC and XPRD at variable temperature; details: for temperature up to which the form is stable: DSC / XPRD at variable temperature
Experimental: The thermal properties of the polymorphic forms described were obtained through differential scanning calorimetry (DSC). The DSC profiles were obtained with a heat flow instrument DSC 200 F3 Maia® (Netzsch). The DSC 200 F3 Maia® instrument was calibrated for temperature and enthalpy with an indium standard (melting point: 156.6° C.; ΔHf=28.45 Jg^−1). The samples were analysed according to the following conditions: • temperature range: 25-350° C.; • heating rate: 10° C./min; • sample-holder: perforated aluminium crucible; • gas: anhydrous nitrogen at a flow rate of 60 mL/min.
In order to determine the X-ray powder diffraction profiles (XPRD) a diffractometer Panalytical X'Pert Pro equipped with detector X'Celerator and X-ray tube (PW3373/00 Cu LFF DK312503) with current intensity 40 mA and voltage 40 kV was used. The instrument was calibrated with a silicon powder standard PANalytical640. The sample was positioned on a glass sample-carrier and analysed using the following parameters: • Scanning range(°): 3.0010-39.9997 • Data acquisition range(°): 0.0167 • Scanning mode: Continuous • Counter time (s): 12,700 • soller slits (rad): 0.04 • divergence slits: ¼ • anti-scatter slits: ½

[4] = Reprecipitation of FI/FII 1:1 (w/w) in ethyl acetate, 48 hours at 25° C., XPRD of the solid
Experimental: Into a 2 liter jacketed reactor 1000 ml of ethyl acetate (EtOAc) is loaded, the mechanical stirrer is actuated setting the rate to 200 rpm and then 25 g of polymorphic form FI and 25 g of polymorphic form FII are slowly added. It is left under stirring for 48 hours at a temperature of 25° C.
It is filtered on buckner and the white solid obtained is washed with 50 ml of EtOAc (1 Volume with respect to the loaded total dry solid NaHDC polymorphic form FI and NaHDC polymorphic form FII).

[5] = Stability tests according to guidelines ICH Q1A at 25° C./60% RH and 40° C./75% RH
[6] = Stability of the polymorphic form in the formulation of a medicinal product; details: inserted into the formulation of a medicinal product
[7] = listed as mixture of forms of NaHDC

SMILES | weight change at 0% RH in desorption [1] | water still contained at the inflection at about 40% RH in desorption [1] | weight change preserved in desorption up to 50% RH [1] | weight change in sorption at 70% RH [1] | weight change in sorption at 90% RH [1] | weight change at 0% RH in desorption ([2]; desorption) | weight change in sorption at 70% RH ([2]; sorption) | weight change in sorption at 90% RH ([2]; sorption) | temperature up to which the form is stable [3] | weight change in sorption at 30% RH [1] | other results
C[C@H](CCC(=O)[O-])[C@H]1CC[C@H]2[C@@H]3C[C@H](O)[C@@H]4C[C@H](O)CC[C@]4(C)[C@H]3CC[C@]12C.[Na+] [polymorphic form FII, sodium 3α,6α-dihydroxy-5β,-cholan-24-oate] | zero | about 18% | about 34% | less than 2% | about 35% | about 6% | less than 2% | about 45% | 260 °C | – | hygroscopic behaviour ([1]; humidity sorption cycle in isotherm at 25° C. and at 40° C. (FIGS. 10-13, 27, 28, 58)): non-hygroscopic; shape of the desorption curve at 50-40% RH ([2]; desorption, 50-40% RH): plateau; relative humidity up to which the sample is stable in sorption ([2]; sorption): about 70 % RH; temperature of conversion into the polymorphic form FI on heating ([3]; heating, solid-solid conversion into form FI): 280 °C; thermodynamic stability among the forms ([4]; room temperature): most thermodynamically stable one at room temperature and up to 260 °C; also recorded: most thermodynamically stable form at room temperature; stability with regard to humidity in ICH Q1A tests [5]: surprising and unforeseeable stability with regard to humidity both at 25 °C and at 40 °C; stability over time in the formulation (interconversion into other polymorphic forms) [6]: stable over time
C[C@H](CCC(=O)[O-])[C@H]1CC[C@H]2[C@@H]3C[C@H](O)[C@@H]4C[C@H](O)CC[C@]4(C)[C@H]3CC[C@]12C.[Na+] [amorphous form of NaHDC, sodium 3α,6α-dihydroxy-5β,-cholan-24-oate] | weight that is less than the starting weight | about 17% | about 34% | 22% | about 35% | – | – | – | – | about 6% | –
C[C@H](CCC(=O)[O-])[C@H]1CC[C@H]2[C@@H]3C[C@H](O)[C@@H]4C[C@H](O)CC[C@]4(C)[C@H]3CC[C@]12C.[Na+] [NaHDC mixture, sodium 3α,6α-dihydroxy-5β,-cholan-24-oate] | – | about 18% | about 34% | – | about 35% | – | – | – | – | – | water still contained at the inflection at about 40% RH in desorption [1, 7]: about 18%; change in weight in sorption at 20% RH [1]: about 3%; change in weight in sorption at 20% RH [1, 7]: about 3%; weight change in sorption at 70% RH [1, 7]: 15%
C[C@H](CCC(=O)[O-])[C@H]1CC[C@H]2[C@@H]3C[C@H](O)[C@@H]4C[C@H](O)CC[C@]4(C)[C@H]3CC[C@]12C.[Na+] [polymorphic form FI, sodium 3α,6α-dihydroxy-5β,-cholan-24-oate] | zero | about 18% | about 34% | – | about 35% | zero | 8% | about 43% | 280 °C | about 2% | change in weight at the plateau at 50-40% RH in desorption ([2]; desorption, 50-40% RH): about 17%; weight change in sorption at 30% RH ([2]; sorption, 30% RH): about 2%; interconversion of the polymorphic form on reprecipitation ([4]; FI and FII 1:1 weight/weight, ethyl acetate, 48 hours, room temperature (20-25° C.)): completely converts into the polymorphic form FII; also recorded: interconverts into the polymorphic form FII

Source: patent publication US9580458B2, “Polymorphic form of sodium hyodeoxycholate (NaHDC) and its preparation process” (PRODOTTI CHIMICI E […].P.A., priority 2013, dated 2017)
